Test results taken from patent US20100267561A1, “HERBICIDAL PYRIDAZINONE DERIVATIVES” (priority 2007, published 2010).

Assays:
Format in all cases: in vivo
[1] = test system: pigweed (Amaranthus retroflexus); test: Test C pre-/postemergence plant response
Summary of the method: (§1)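 Visual rating vs untreated controls, 0 (no effect) to 100 (complete control), after 15–25 days in a controlled growth environment. Pre- and postemergence treatments; post plants at 1- to 4-leaf stage, 2–18 cm. Formulation: non-phytotoxic solvent mix plus surfactant.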

wild oat (Avena fatua) = test: Test C pre-/postemergence plant response
Summary of the method: as §1

[2] = test system: wild mustard (Sinapis arvensis); test: Test C pre-/postemergence plant response
Summary of the method: as §1

[3] = test system: blackgrass (Alopecurus myosuroides); test: Test C pre-/postemergence plant response
Summary of the method: as §1

[4] = test system: annual bluegrass (Poa annua); test: Test C pre-/postemergence plant response
Summary of the method: as §1

[5] = test system: spring barley (Hordeum vulgare); test: Test C pre-/postemergence plant response
Summary of the method: as §1

[6] = test system: winter wheat (Triticum aestivum); test: Test C pre-/postemergence plant response
Summary of the method: as §1

[7] = test system: downy bromegrass (Bromus tectorum); test: Test C pre-/postemergence plant response
Summary of the method: as §1

[8] = test system: windgrass (Apera spica-venti); test: Test C pre-/postemergence plant response
Summary of the method: as §1

[9] = test system: canarygrass (Phalaris minor); test: Test C pre-/postemergence plant response; details: Preemergence
Summary of the method: as §1

[10] = test system: green foxtail (Setaria viridis); test: Test C pre-/postemergence plant response
Summary of the method: as §1

[11] = test system: surinam grass (Brachiaria decumbens); test: Test B pre-/postemergence plant response
Summary of the method: (§2)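 Seeds were sown and sprayed preemergence, while plants at 2 to 18 cm (1- to 4-leaf stage) got postemergence sprays. Compounds were formulated in a non-phytotoxic solvent mixture with surfactant. After 13 to 15 days in a greenhouse, injury was rated visually against untreated controls, 0 (no effect) to 100 (complete control).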

[12] = test system: johnsongrass (Sorghum halepense); test: Test B pre-/postemergence plant response
Summary of the method: as §2

[13] = Preemergence, 8 g ai/ha, scale 0 to 100 (0 no effect, 100 complete control)
[14] = Preemergence, 16 g ai/ha, scale 0 to 100 (0 no effect, 100 complete control)
[15] = Preemergence, 31 g ai/ha, scale 0 to 100 (0 no effect, 100 complete control)
[16] = Preemergence, 62 g ai/ha, scale 0 to 100, 0 no effect, 100 complete control
[17] = 8 g ai/ha, scale 0 to 100 (0 no effect, 100 complete control)
[18] = 16 g ai/ha, scale 0 to 100 (0 no effect, 100 complete control)
[19] = 31 g ai/ha, scale 0 to 100 (0 no effect, 100 complete control)
[20] = 62 g ai/ha, scale 0 to 100, 0 no effect, 100 complete control
[21] = Preemergence, 62 g ai/ha, 0 to 100 scale, 0 no effect, 100 complete control
[22] = Preemergence, 8 g ai/ha, scale 0 to 100
[23] = Preemergence, 16 g ai/ha, scale 0 to 100
[24] = Postemergence, 8 g ai/ha, scale 0 to 100, 0 no effect, 100 complete control
[25] = Postemergence, 16 g ai/ha, scale 0 to 100, 0 no effect, 100 complete control
[26] = Postemergence, 31 g ai/ha, scale 0 to 100, 0 no effect, 100 complete control
[27] = Postemergence, 62 g ai/ha, scale 0 to 100, 0 no effect, 100 complete control
[28] = 8 g ai/ha, postemergence, 0-100 scale
[29] = Postemergence, 16 g ai/ha, scale 0 to 100
[30] = Postemergence, 31 g ai/ha, scale 0 to 100

Structure (SMILES): Cc1cc(-c2ccc(Cl)cc2)nn1-c1c(OS(=O)(=O)c2ccccc2[N+](=O)[O-])cnn(C)c1=O [Compound 51]
- Plant response rating, Pigweed [1, 13]: 0
- Plant response rating, Pigweed [1, 14]: 0
- Plant response rating, Pigweed [1, 15]: 0
- Plant response rating, Pigweed [1, 16]: 0
- Plant response rating, Oat, Wild (wild oat (Avena fatua); [13]): 0
- Plant response rating, Oat, Wild (wild oat (Avena fatua); [14]): 0
- Plant response rating, Oat, Wild (wild oat (Avena fatua); [15]): 35
- Plant response rating, Oat, Wild (wild oat (Avena fatua); [16]): 50
- Plant response rating, Mustard, Wild [2, 14]: 0
- Plant response rating, Mustard, Wild [2, 15]: 0
- Plant response rating, Mustard, Wild [2, 16]: 0
- Plant response rating, Blackgrass [3, 13]: 0
- Plant response rating, Blackgrass [3, 14]: 35
- Plant response rating, Blackgrass [3, 15]: 100
- Plant response rating, Blackgrass [3, 16]: 100
- Plant response rating, Bluegrass [4, 13]: 0
- Plant response rating, Bluegrass [4, 14]: 0
- Plant response rating, Bluegrass [4, 15]: 0
- Plant response rating, Bluegrass [4, 16]: 10
- Plant response rating, Barley, Spring [5, 13]: 0
- Plant response rating, Barley, Spring [5, 14]: 15
- Plant response rating, Barley, Spring [5, 15]: 20
- Plant response rating, Barley, Spring [5, 16]: 70
- Plant response rating, Wheat, Winter [6, 13]: 0
- Plant response rating, Wheat, Winter [6, 14]: 0
- Plant response rating, Wheat, Winter [6, 15]: 0
- Plant response rating, Wheat, Winter [6, 16]: 40
- Plant response rating, Bromegrass, Downy [7, 13]: 0
- Plant response rating, Bromegrass, Downy [7, 14]: 0
- Plant response rating, Bromegrass, Downy [7, 15]: 0
- Plant response rating, Bromegrass, Downy [7, 16]: 50
- Plant response rating, Windgrass [8, 13]: 0
- Plant response rating, Windgrass [8, 14]: 10
- Plant response rating, Windgrass [8, 15]: 20
- Plant response rating, Windgrass [8, 16]: 80
- Plant response rating, Canarygrass [9, 17]: 0
- Plant response rating, Canarygrass [9, 18]: 0
- Plant response rating, Canarygrass [9, 19]: 80
- Plant response rating, Canarygrass [9, 20]: 90
- Plant response rating, Foxtail, Green [10, 13]: 10
- Plant response rating, Foxtail, Green [10, 14]: 80
- Plant response rating, Foxtail, Green [10, 15]: 100
- Plant response rating, Foxtail, Green [10, 16]: 100
- Plant response rating, Surinam Grass [11, 15]: 90
- Plant response rating, Surinam Grass [11, 21]: 100
- Surinam Grass plant response rating [11, 22]: 30
- Surinam Grass plant response rating [11, 23]: 75
- Plant response rating, Johnsongrass ([12]; Preemergence, 31 g ai/ha, 0 to 100 scale, 0 no effect, 100 complete control): 70
- Plant response rating, Johnsongrass ([12]; Preemergence, 62 g ai/ha, scale 0 to 100): 80
- Johnsongrass plant response rating [12, 23]: 50

Structure (SMILES): Cc1cc(-c2ccc(Cl)cc2)nn1-c1c(OC(=O)OCC(C)C)cnn(C)c1=O [Compound 57]
- Plant response rating, Pigweed [1, 24]: 0
- Plant response rating, Pigweed [1, 25]: 0
- Plant response rating, Pigweed [1, 26]: 0
- Plant response rating, Pigweed [1, 27]: 0
- Plant response rating, Pigweed [1, 13]: 0
- Plant response rating, Pigweed [1, 14]: 0
- Plant response rating, Pigweed [1, 15]: 0
- Plant response rating, Pigweed [1, 16]: 0
- Plant response rating, Oat, Wild (wild oat (Avena fatua); [24]): 10
- Plant response rating, Oat, Wild (wild oat (Avena fatua); [25]): 90
- Plant response rating, Oat, Wild (wild oat (Avena fatua); [26]): 90
- Plant response rating, Oat, Wild (wild oat (Avena fatua); [27]): 100
- Plant response rating, Oat, Wild (wild oat (Avena fatua); [13]): 0
- Plant response rating, Oat, Wild (wild oat (Avena fatua); [14]): 15
- Plant response rating, Oat, Wild (wild oat (Avena fatua); [15]): 60
- Plant response rating, Oat, Wild (wild oat (Avena fatua); [16]): 80
- Plant response rating, Mustard, Wild [2, 24]: 0
- Plant response rating, Mustard, Wild [2, 25]: 0
- Plant response rating, Mustard, Wild [2, 26]: 0
- Plant response rating, Mustard, Wild [2, 27]: 0
- Plant response rating, Mustard, Wild [2, 13]: 0
- Plant response rating, Mustard, Wild [2, 14]: 0
- Plant response rating, Mustard, Wild [2, 15]: 0
- Plant response rating, Mustard, Wild [2, 16]: 0
- Plant response rating, Blackgrass [3, 24]: 35
- Plant response rating, Blackgrass [3, 25]: 75
- Plant response rating, Blackgrass [3, 26]: 98
- Plant response rating, Blackgrass [3, 13]: 75
- Plant response rating, Blackgrass [3, 14]: 85
- Plant response rating, Blackgrass [3, 15]: 95
- Plant response rating, Blackgrass [3, 16]: 95
- Plant response rating, Bluegrass [4, 24]: 0
- Plant response rating, Bluegrass [4, 25]: 10
- Plant response rating, Bluegrass [4, 26]: 30
- Plant response rating, Bluegrass [4, 27]: 35
- Plant response rating, Bluegrass [4, 13]: 0
- Plant response rating, Bluegrass [4, 14]: 30
- Plant response rating, Bluegrass [4, 15]: 50
- Plant response rating, Bluegrass [4, 16]: 65
- Plant response rating, Barley, Spring [5, 24]: 0
- Plant response rating, Barley, Spring [5, 25]: 20
- Plant response rating, Barley, Spring [5, 26]: 30
- Plant response rating, Barley, Spring [5, 27]: 40
- Plant response rating, Barley, Spring [5, 13]: 0
- Plant response rating, Barley, Spring [5, 14]: 0
- Plant response rating, Barley, Spring [5, 15]: 20
- Plant response rating, Barley, Spring [5, 16]: 40
- Plant response rating, Wheat, Winter [6, 24]: 0
- Plant response rating, Wheat, Winter [6, 25]: 30
- Plant response rating, Wheat, Winter [6, 26]: 30
- Plant response rating, Wheat, Winter [6, 27]: 50
- Plant response rating, Wheat, Winter [6, 13]: 15
- Plant response rating, Wheat, Winter [6, 14]: 15
- Plant response rating, Wheat, Winter [6, 15]: 20
- Plant response rating, Wheat, Winter [6, 16]: 65
- Plant response rating, Bromegrass, Downy [7, 24]: 0
- Plant response rating, Bromegrass, Downy [7, 25]: 30
- Plant response rating, Bromegrass, Downy [7, 26]: 30
- Plant response rating, Bromegrass, Downy [7, 27]: 70
- Plant response rating, Bromegrass, Downy [7, 13]: 0
- Plant response rating, Bromegrass, Downy [7, 14]: 20
- Plant response rating, Bromegrass, Downy [7, 15]: 40
- Plant response rating, Bromegrass, Downy [7, 16]: 80
- Plant response rating, Windgrass [8, 24]: 0
- Plant response rating, Windgrass [8, 25]: 0
- Plant response rating, Windgrass [8, 26]: 0
- Plant response rating, Windgrass [8, 27]: 65
- Plant response rating, Windgrass [8, 13]: 0
- Plant response rating, Windgrass [8, 14]: 0
- Plant response rating, Windgrass [8, 15]: 50
- Plant response rating, Windgrass [8, 16]: 75
- Plant response rating, Canarygrass [9, 17]: 0
- Plant response rating, Canarygrass [9, 18]: 75
- Plant response rating, Canarygrass [9, 19]: 80
- Plant response rating, Canarygrass [9, 20]: 90
- Plant response rating, Foxtail, Green [10, 24]: 90
- Plant response rating, Foxtail, Green [10, 25]: 100
- Plant response rating, Foxtail, Green [10, 26]: 100
- Plant response rating, Foxtail, Green [10, 27]: 100
- Plant response rating, Foxtail, Green [10, 13]: 40
- Plant response rating, Foxtail, Green [10, 14]: 100
- Plant response rating, Foxtail, Green [10, 15]: 100
- Plant response rating, Foxtail, Green [10, 16]: 100
- Surinam Grass plant response rating [11, 28]: 65
- Plant response rating, Surinam Grass [11, 29]: 75
- Plant response rating, Surinam Grass [11, 30]: 100
- Plant response rating, Surinam Grass [11, 27]: 100
- Plant response rating, Surinam Grass [11, 15]: 100
- Plant response rating, Surinam Grass [11, 21]: 100
- Surinam Grass plant response rating [11, 22]: 60
- Surinam Grass plant response rating [11, 23]: 98
- Johnsongrass plant response rating [12, 28]: 15
- Plant response rating, Johnsongrass [12, 29]: 65
- Plant response rating, Johnsongrass [12, 30]: 90
- Plant response rating, Johnsongrass [12, 27]: 100
- Plant response rating, Johnsongrass [12, 15]: 90
- Plant response rating, Johnsongrass [12, 21]: 100
- Johnsongrass plant response rating [12, 22]: 65
- Johnsongrass plant response rating [12, 23]: 90
